ChEMBL document CHEMBL3994651, “Physapubescin, a natural withanolide as a kidney-type glutaminase (KGA) inhibitor” (Bioorg Med Chem Lett, 2017)
Calls of active or inactive are those of the source. The calls are words filed in the database; no cut-off is given here.

Assays:
[1] = target: T1, Glutaminase kidney isoform, mitochondrial (Homo sapiens, UniProt O94925); assay: Inhibition of recombinant KGA (unknown origin) using glutamine as substrate
T1 sequence (O94925 whole entry): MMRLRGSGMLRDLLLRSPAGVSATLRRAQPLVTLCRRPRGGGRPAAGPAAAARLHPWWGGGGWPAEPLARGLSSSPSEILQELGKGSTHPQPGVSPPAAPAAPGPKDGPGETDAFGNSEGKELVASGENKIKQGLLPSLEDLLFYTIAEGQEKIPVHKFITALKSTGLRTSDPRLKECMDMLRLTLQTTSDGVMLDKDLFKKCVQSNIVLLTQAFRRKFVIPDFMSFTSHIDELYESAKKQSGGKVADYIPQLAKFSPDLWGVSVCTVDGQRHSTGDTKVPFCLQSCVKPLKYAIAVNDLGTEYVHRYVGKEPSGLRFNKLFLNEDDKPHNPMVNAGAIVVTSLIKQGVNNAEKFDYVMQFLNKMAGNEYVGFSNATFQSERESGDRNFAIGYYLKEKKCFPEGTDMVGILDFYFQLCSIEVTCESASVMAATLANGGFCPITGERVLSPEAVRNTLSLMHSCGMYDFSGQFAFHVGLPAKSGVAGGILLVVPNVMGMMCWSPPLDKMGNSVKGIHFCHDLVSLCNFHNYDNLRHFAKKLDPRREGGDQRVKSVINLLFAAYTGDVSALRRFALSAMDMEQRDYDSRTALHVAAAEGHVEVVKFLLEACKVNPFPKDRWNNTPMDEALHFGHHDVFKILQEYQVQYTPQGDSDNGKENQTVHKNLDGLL

HCC827 = assay: Cytotoxicity against human erlotinib-resistant HCC827 cells assessed as growth inhibition after 48 hrs by CCK8 assay; type: functional, cell-based; conditions: HCC827, 48 h
HT-1080 = assay: Cytotoxicity against human HT1080 cells assessed as growth inhibition after 48 hrs by CCK8 assay; type: functional, cell-based; conditions: HT-1080, 48 h
[2] = target: T2, Glutaminase kidney isoform, mitochondrial (Homo sapiens) (UniProt O94925); assay: Competitive inhibition of recombinant KGA (unknown origin) at 40 uM using varying levels of glutamine substrate measured within 1 to 4 mins
T2 sequence (whole entry): T1 sequence (O94925 whole entry)

[3] = target: T1, Glutaminase kidney isoform, mitochondrial; assay: Binding affinity to NT-647-NHS-labelled KGA (unknown origin) after 10 mins by microscale thermophoresis method
L02 = assay: Cytotoxicity against human LO2 cells assessed as growth inhibition after 48 hrs by CCK8 assay; type: cell-based; conditions: L02, 48 h
L929 = assay: Cytotoxicity against mouse L929 cells assessed as growth inhibition after 48 hrs by CCK8 assay; type: cell-based; conditions: L929, 48 h
Vero = assay: Cytotoxicity against monkey Vero cells assessed as growth inhibition after 48 hrs by CCK8 assay; type: cell-based; conditions: Chlorocebus sabaeus

SMILES | IC50 [1] | IC50 (HCC827) | IC50 (HT-1080) | inhibition [2] | Kd [3] | IC50 (L02) | IC50 (L929) | IC50 (Vero)
C[C@@H]([C@H]1CC[C@H]2[C@@H]3CC=C4C[C@@H](O[C@@H]5O[C@H](CO[C@@H]6O[C@H](CO)[C@@H](O)[C@H](O)[C@H]6O)[C@@H](O)[C@H](O)[C@H]5O)C[C@H](O)[C@]4(C)[C@H]3CC[C@]12C)[C@H]1C[C@@](C)(O)[C@](C)(O)C(O)O1 (some centres not stated) | > 100 µM | > 200 µM | > 200 µM | – | – | – | – | –
O=C(Cc1ccccc1)Nc1nnc(CCSCCc2nnc(NC(=O)Cc3ccccc3)s2)s1 | – | 42.4 µM | 47.7 µM | – | – | – | – | –
O=C(Cc1cccc(OC(F)(F)F)c1)Nc1ccc(CCCCc2nnc(NC(=O)Cc3ccccn3)s2)nn1 | – | 51.4 µM | 44.4 µM | – | – | – | – | –
CO[C@@H]1O[C@@H]([C@@H](C)[C@H]2CC[C@H]3[C@@H]4CC=C5C[C@@H](O[C@@H]6O[C@H](CO[C@@H]7O[C@H](CO)[C@@H](O)[C@H](O)[C@H]7O)[C@@H](O)[C@H](O)[C@H]6O)C[C@H](O)[C@]5(C)[C@H]4CC[C@]23C)C[C@](C)(OC)[C@]1(C)O | > 100 µM | > 200 µM | > 200 µM | – | – | – | – | –
C[C@@H]([C@H]1CC[C@H]2[C@@H]3CC=C4C[C@@H](O)C[C@H](O)[C@]4(C)[C@H]3CC[C@]12C)[C@H]1C[C@](C)(O)[C@](C)(O)C(=O)O1 | > 100 µM | > 200 µM | > 200 µM | – | – | – | – | –
C[C@@H]([C@H]1CC[C@H]2[C@@H]3CC=C4C[C@@H](O)C[C@H](O)[C@]4(C)[C@H]3CC[C@]12C)[C@H]1C[C@@](C)(O)[C@](C)(O)C(O)O1 (some centres not stated) | > 100 µM | > 200 µM | > 200 µM | – | – | – | – | –
C[C@@H]([C@H]1CC[C@H]2[C@@H]3CC=C4C[C@@H](O[C@@H]5O[C@H](CO[C@@H]6O[C@H](CO)[C@@H](O)[C@H](O)[C@H]6O)[C@@H](O)[C@H](O)[C@H]5O)C[C@H](O)[C@]4(C)[C@H]3CC[C@]12C)[C@H]1C[C@](C)(O)[C@](C)(O)C(=O)O1 | > 100 µM | > 200 µM | > 200 µM | – | – | – | – | –
CC(=O)O[C@H]1C[C@H]([C@H](C)[C@H]2C[C@]3(C)O[C@]3(C)[C@H](O)O2)[C@@]2(C)CC[C@H]3[C@@H](C[C@@H]4O[C@]45[C@@H](O)C=CC(=O)[C@]35C)[C@H]12 | 9.89 µM | 2.76 µM | 6.99 µM | Active | 4.95 µM | 10.4 µM | 10.4 µM | 12.4 µM
